≈ marks a conversion by molar mass, not a printed value. Where “and” joins values, the source holds several entries; their conditions need not be identical. Equal entries are not always repeated. Where two headings read alike, the source gives them in different places.
How the values were obtained:
Type in all cases: cell-based
Sporotrichum schenckii = assay: Antifungal activity in vitro, mycelial growth on Sabouraud dextrose agar; details: for weekly increments of the diameter of colony: duplicates a, b; for MIC: Sporothrix schenckii
Histoplasma capsulatum = assay: microbe, parasite or virus in culture; details: for weekly increments of the diameter of colony: duplicates a, b; for MIC: Histoplasma capsulatum
Blastomyces dermatitidis = assay: Antifungal activity in vitro, mycelial growth on Sabouraud dextrose agar; details: for weekly increments of the diameter of colony: duplicates a, b; for MIC: Blastomyces dermatitidis
Trichophyton rubrum = assay: as above; details: for weekly increments of the diameter of colony: duplicates a, b; for MIC: Trichophyton rubrum
[1] = 336 h, two week period, read-out: minimum in vitro inhibitory concentration
[2] = 336 h, read-out: minimum in vitro inhibitory concentration

In the case of `CSC1(C)CCC2C(C)CCC(c3ccoc3)N2C1O` (single isomer, unassigned) [Example 7-MTDOL, 7β-methylthiodeoxynupharidin-6α-ol], the “weekly increments of the diameter of colony” value (“weekly increments” for short) (Sporotrichum schenckii; 10 mcg/ml, week 1, No. 1109, 25° C) is reported as 11 mm and 10 mm, the “weekly increments” value (Sporotrichum schenckii; 10 mcg/ml, week 2, No. 1109, 25° C) is reported as 25 mm and 24 mm and the “weekly increments” value (Sporotrichum schenckii; 20 mcg/ml, week 2, No. 1109, 25° C) is reported as 20 mm. The “weekly increments” value (Sporotrichum schenckii; 20 mcg/ml, week 3, No. 1109, 25° C) was 31 mm and 29 mm, the “weekly increments” value (Sporotrichum schenckii; 40 mcg/ml, week 2, No. 1109, 25° C, a: colony overgrown by adjacent culture) was 18 mm and 15 mm and the “weekly increments” value (Sporotrichum schenckii; 40 mcg/ml, week 3, No. 1109, 25° C, a: colony overgrown by adjacent culture) was 18 mm and 25 mm. The “weekly increments” value (Sporotrichum schenckii; 60 mcg/ml, week 1, No. 1109, 25° C) was 0 mm, the “weekly increments” value (Sporotrichum schenckii; 60 mcg/ml, week 2, No. 1109, 25° C) was 10 mm and the “weekly increments” value (Sporotrichum schenckii; 60 mcg/ml, week 3, No. 1109, 25° C) was 20 mm. The “weekly increments” value (Sporotrichum schenckii; 80 mcg/ml, week 1, No. 1109, 25° C) was 0 mm, the “weekly increments” value (Sporotrichum schenckii; 80 mcg/ml, week 2, No. 1109, 25° C) was 0 mm and the “weekly increments” value (Sporotrichum schenckii; 100 mcg/ml, week 1, No. 1109, 25° C) was 0 mm. For the same compound, the “weekly increments” value (Sporotrichum schenckii; 100 mcg/ml, week 2, No. 1109, 25° C) was 0 mm, the “weekly increments” value (Sporotrichum schenckii; 100 mcg/ml, week 3, No. 1109, 25° C) was 0 mm and the MIC (Sporotrichum schenckii; [1]) was 100 µg/mL (≈ 338 µM). The MIC (Sporotrichum schenckii; 504 h, up to the end of 3 weeks, Sabouraud dextrose agar, read-out: concentration inhibiting growth) was 100 µg/mL (≈ 338 µM), the “weekly increments” value (Histoplasma capsulatum; 10 mcg/ml, week 2, No. 1106, 25° C) was 15 mm and 10 mm and the “weekly increments” value (Histoplasma capsulatum; 10 mcg/ml, week 3, No. 1106, 25° C) was 25 mm and 29 mm. For the same compound, the “weekly increments” value (Histoplasma capsulatum; 20 mcg/ml, week 1, No. 1106, 25° C) was 0 mm, the “weekly increments” value (Histoplasma capsulatum; 20 mcg/ml, week 3, No. 1106, 25° C) was 10 mm and 5 mm and the “weekly increments” value (Histoplasma capsulatum; 40 mcg/ml, week 1, No. 1106, 25° C) was 0 mm. For the same compound, the “weekly increments” value (Histoplasma capsulatum; 60 mcg/ml, week 1, No. 1106, 25° C) was 0 mm, the “weekly increments” value (Histoplasma capsulatum; 60 mcg/ml, week 2, No. 1106, 25° C) was 0 mm and the “weekly increments” value (Histoplasma capsulatum; 60 mcg/ml, week 3, No. 1106, 25° C) was 0 mm. The “weekly increments” value (Histoplasma capsulatum; 80 mcg/ml, week 1, No. 1106, 25° C) was 0 mm, the “weekly increments” value (Histoplasma capsulatum; 80 mcg/ml, week 2, No. 1106, 25° C) was 0 mm and the “weekly increments” value (Histoplasma capsulatum; 80 mcg/ml, week 3, No. 1106, 25° C) was 0 mm. For the same compound, the “weekly increments” value (Histoplasma capsulatum; 100 mcg/ml, week 1, No. 1106, 25° C) was 0 mm, the “weekly increments” value (Histoplasma capsulatum; 100 mcg/ml, week 2, No. 1106, 25° C) was 0 mm and the “weekly increments” value (Histoplasma capsulatum; 100 mcg/ml, week 3, No. 1106, 25° C) was 0 mm. The MIC (Histoplasma capsulatum; [2]) was 40 µg/mL (≈ 135 µM), the MIC (Histoplasma capsulatum; 504 h, read-out: concentration inhibiting mycelial growth) was 40 µg/mL (≈ 135 µM) and the “weekly increments” value (Blastomyces dermatitidis; 10 mcg/ml, week 1, No. 1107, 25° C) was 14 mm. The “weekly increments” value (Blastomyces dermatitidis; 10 mcg/ml, week 2, No. 1107, 25° C) was 20 mm and 21 mm, the “weekly increments” value (Blastomyces dermatitidis; 10 mcg/ml, week 3, No. 1107, 25° C) was 35 mm and 32 mm and the “weekly increments” value (Blastomyces dermatitidis; 20 mcg/ml, week 1, No. 1107, 25° C) was 10 mm. For the same compound, the “weekly increments” value (Blastomyces dermatitidis; 20 mcg/ml, week 2, No. 1107, 25° C) was 16 mm and 15 mm, the “weekly increments” value (Blastomyces dermatitidis; 20 mcg/ml, week 3, No. 1107, 25° C) was 17 mm and 18 mm and the “weekly increments” value (Blastomyces dermatitidis; 40 mcg/ml, week 1, No. 1107, 25° C) was 7 mm and 6 mm. For the same compound, the “weekly increments” value (Blastomyces dermatitidis; 40 mcg/ml, week 2, No. 1107, 25° C) was 15 mm, the “weekly increments” value (Blastomyces dermatitidis; 40 mcg/ml, week 3, No. 1107, 25° C) was 20 mm and 28 mm and the “weekly increments” value (Blastomyces dermatitidis; 60 mcg/ml, week 1, No. 1107, 25° C) was 0 mm. For the same compound, the “weekly increments” value (Blastomyces dermatitidis; 60 mcg/ml, week 2, No. 1107, 25° C) was 5 mm, the “weekly increments” value (Blastomyces dermatitidis; 60 mcg/ml, week 3, No. 1107, 25° C) was 5 mm and 7 mm and the “weekly increments” value (Blastomyces dermatitidis; 80 mcg/ml, week 1, No. 1107, 25° C) was 0 mm. For the same compound, the “weekly increments” value (Blastomyces dermatitidis; 80 mcg/ml, week 2, No. 1107, 25° C) was 0 mm, the “weekly increments” value (Blastomyces dermatitidis; 100 mcg/ml, week 1, No. 1107, 25° C) was 0 mm and the MIC (Blastomyces dermatitidis; [1]) was 80 µg/mL (≈ 271 µM). The MIC (Blastomyces dermatitidis; 504 h, up to the end of 3 weeks, Sabouraud dextrose agar, read-out: concentration inhibiting mycelial growth) was 80 µg/mL (≈ 271 µM), the “weekly increments” value (Trichophyton rubrum; 10 mcg/ml, week 1, No. 1112, 25° C) was 10 mm and 11 mm and the “weekly increments” value (Trichophyton rubrum; 10 mcg/ml, week 2, No. 1112, 25° C, colony overgrown by adjacent culture) was 20 mm. The “weekly increments” value (Trichophyton rubrum; 10 mcg/ml, week 3, No. 1112, 25° C, colony overgrown by adjacent culture) was 22 mm and 25 mm, the “weekly increments” value (Trichophyton rubrum; 20 mcg/ml, week 1, No. 1112, 25° C) was 8 mm and 7 mm and the “weekly increments” value (Trichophyton rubrum; 20 mcg/ml, week 2, No. 1112, 25° C) was 21 mm and 20 mm. For the same compound, the “weekly increments” value (Trichophyton rubrum; 20 mcg/ml, week 3, No. 1112, 25° C, b: colony overgrown by adjacent culture) was 30 mm and 22 mm, the “weekly increments” value (Trichophyton rubrum; 40 mcg/ml, week 1, No. 1112, 25° C) was 8 mm and 6 mm and the “weekly increments” value (Trichophyton rubrum; 40 mcg/ml, week 2, No. 1112, 25° C) was 20 mm and 18 mm. For the same compound, the “weekly increments” value (Trichophyton rubrum; 40 mcg/ml, week 3, No. 1112, 25° C) was 30 mm and 26 mm, the “weekly increments” value (Trichophyton rubrum; 60 mcg/ml, week 2, No. 1112, 25° C) was 8 mm and 6 mm and the “weekly increments” value (Trichophyton rubrum; 60 mcg/ml, week 3, No. 1112, 25° C) was 14 mm and 15 mm. For the same compound, the “weekly increments” value (Trichophyton rubrum; 80 mcg/ml, week 1, No. 1112, 25° C) was 0 mm, the “weekly increments” value (Trichophyton rubrum; 80 mcg/ml, week 2, No. 1112, 25° C) was 5 mm and the “weekly increments” value (Trichophyton rubrum; 80 mcg/ml, week 3, No. 1112, 25° C) was 9 mm and 6 mm. For the same compound, the “weekly increments” value (Trichophyton rubrum; 100 mcg/ml, week 3, No. 1112, 25° C) was 6 mm and 7 mm, the MIC (Trichophyton rubrum; [2]) was 100 µg/mL (≈ 338 µM) and the MIC (Trichophyton rubrum; 504 h, read-out: concentration inhibiting growth) was 100 µg/mL (≈ 338 µM).

Source: patent US4011327A (priority 1975, dated 1977)
